Patent US6737383B1, “Herbicidal oxadiazolidines” (priority 1999, dated 2004)

Assays:
bedstraw = experiment: Test B pre/postemergence bedstraw; format: in vivo, Galium aparine; conditions: Postemergence
Outline: (§1)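 Response is a visual 0-to-10 score relative to untreated plants, where 0 means no effect and 10 means complete control, taken twelve to sixteen days after application. Treatments went onto soil at planting and onto foliage of 1- to 4-leaf plants, using a surfactant-containing non-phytotoxic solvent.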

blackgrass = experiment: Test B pre/postemergence blackgrass; format: in vivo, Alopecurus myosuroides
Outline: as §1

surinam grass = experiment: Test B pre/postemergence surinam grass; format: in vivo, Brachiaria decumbens
Outline: as §1

cocklebur = experiment: Test B pre/postemergence cocklebur; format: in vivo, Xanthium strumarium
Outline: as §1

corn = experiment: Test B pre/postemergence corn; format: in vivo, Zea mays
Outline: as §1

crabgrass = experiment: Test B pre/postemergence crabgrass; format: in vivo, Digitaria sanguinalis
Outline: as §1

rape = experiment: Test B pre/postemergence rape; format: in vivo, Brassica napus
Outline: as §1

soybean = experiment: Test B pre/postemergence soybean; format: in vivo, Glycine max
Outline: as §1

sugar beet = experiment: Test B pre/postemergence sugar beet; format: in vivo, Beta vulgaris
Outline: as §1

velvetleaf = experiment: Test B pre/postemergence velvetleaf; format: in vivo, Abutilon theophrasti
Outline: as §1

wheat = experiment: Test B pre/postemergence wheat; format: in vivo, Triticum aestivum
Outline: as §1

wild oat = experiment: Test B pre/postemergence wild oat; format: in vivo, Avena fatua
Outline: as §1

purple nutsedge = experiment: Test B pre/postemergence purple nutsedge; format: in vivo, Cyperus rotundus
Outline: as §1

rice = experiment: Test B flood test rice; format: in vivo, Oryza sativa
Outline: (§2)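 Flood test on plants grown to the 2-leaf stage; treated plants kept in greenhouse twelve to sixteen days, then visually rated against controls on a 0 (no effect) to 10 (complete control) scale.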

smallflower flatsedge = experiment: Test B flood test smallflower flatsedge; format: in vivo, Cyperus difformis
Outline: as §2

duck salad = experiment: Test B flood test duck salad; format: in vivo, Heteranthera limosa
Outline: as §2

bamyardgrass = experiment: Test B flood test barnyardgrass; format: in vivo, Echinochloa crus-galli
Outline: as §2

[1] = Postemergence, Rate 125 g/ha, scale 0 to 10, 0 is no effect, 10 is complete control
[2] = Preemergence, Rate 62 g/ha, scale of 0 to 10 where 0 is no effect and 10 is complete control
[3] = Preemergence, Rate 250 g/ha, scale of 0 to 10 where 0 is no effect and 10 is complete control
[4] = Preemergence, Rate 500 g/ha, scale of 0 to 10 where 0 is no effect and 10 is complete control
[5] = Rate 62 g/ha, Postemergence, scale 0 to 10 (0 no effect, 10 complete control)
[6] = Rate 250 g/ha, Postemergence, scale of 0 to 10 where 0 is no effect and 10 is complete control
[7] = Rate 500 g/ha, Postemergence, scale 0 to 10, 0 no effect, 10 complete control
[8] = Rate 62 g/ha, headed Pre-emergence (flood test species), scale 0 to 10 (0 no effect, 10 complete control)
[9] = Rate 125 g/ha, Pre-emergence, flood test species, scale 0 to 10 where 0 is no effect and 10 is complete control
[10] = Rate 250 g/ha, Pre-emergence, flood-test species, scale 0 to 10, 0 is no effect, 10 is complete control
[11] = Rate 500 g/ha, Pre-emergence, flood test species, scale 0 to 10 (0 no effect, 10 complete control)

CC(C)N(C(=O)n1oc(=O)n(C2CC3CCC2C3)c1=O)c1ccc(F)cc1F (centres unmarked) [Compound 326]
Plant response rating, Bedstraw (bedstraw; Rate 125 g/ha, scale 0 to 10, 0 is no effect, 10 is complete control): 5
Plant response rating, Bedstraw (bedstraw; Rate 250 g/ha, scale of 0 to 10 where 0 is no effect and 10 is complete control): 7
Plant response rating, Blackgrass (blackgrass; [1]): 0
Blackgrass plant response rating (blackgrass; [2]): 0
Blackgrass plant response rating (0 to 10 scale) (blackgrass; Preemergence, Rate 125 g/ha): 5
Blackgrass plant response rating (blackgrass; [3]): 7
Blackgrass plant response rating (blackgrass; [4]): 8
Blackgrass plant response rating (blackgrass; [5]): 0
Plant response rating, Blackgrass (blackgrass; [6]): 0
Plant response rating, Blackgrass (blackgrass; [7]): 1
Plant response rating, B. signalgrass (surinam grass; [1]): 0
B. signalgrass plant response rating (surinam grass; [2]): 0
B. signalgrass plant response rating (0 to 10 scale, 0 is no effect, 10 is complete control) (surinam grass; Preemergence, Rate 125 g/ha): 0
B. signalgrass plant response rating (surinam grass; [3]): 3
B. signalgrass plant response rating (surinam grass; [4]): 7
B. signalgrass plant response rating (surinam grass; [5]): 0
Plant response rating, B. signalgrass (surinam grass; [6]): 0
Plant response rating, B. signalgrass (surinam grass; [7]): 0
Plant response rating, Cocklebur (cocklebur; [1]): 0
Cocklebur plant response rating (cocklebur; [2]): 0
Cocklebur plant response rating (0 to 10 scale) (cocklebur; Preemergence, Rate 125 g/ha): 0
Cocklebur plant response rating (cocklebur; [3]): 0
Cocklebur plant response rating (cocklebur; [4]): 0
Cocklebur plant response rating (cocklebur; [5]): 0
Plant response rating, Cocklebur (cocklebur; [6]): 0
Plant response rating, Cocklebur (cocklebur; [7]): 2
Plant response rating, Corn (corn; [1]): 0
Corn plant response rating (corn; [2]): 0
Corn plant response rating (0 to 10 scale) (corn; Preemergence, Rate 125 g/ha): 0
Corn plant response rating (corn; [3]): 0
Corn plant response rating (corn; [4]): 2
Corn plant response rating (corn; [5]): 0
Plant response rating, Corn (corn; [6]): 0
Plant response rating, Corn (corn; [7]): 0
Plant response rating, Crabgrass (crabgrass; [1]): 0
Crabgrass plant response rating (crabgrass; [2]): 0
Crabgrass plant response rating (0 to 10 scale) (crabgrass; Preemergence, Rate 125 g/ha): 0
Crabgrass plant response rating (crabgrass; [3]): 3
Crabgrass plant response rating (crabgrass; [4]): 5
Crabgrass plant response rating (crabgrass; [5]): 0
Plant response rating, Crabgrass (crabgrass; [6]): 1
Plant response rating, Crabgrass (crabgrass; [7]): 3
Plant response rating, Rape (rape; [1]): 0
Rape plant response rating (rape; [2]): 0
Rape plant response rating (0 to 10 scale) (rape; Preemergence, Rate 125 g/ha): 0
Rape plant response rating (rape; [3]): 0
Rape plant response rating (rape; [4]): 1
Rape plant response rating (rape; [5]): 0
Plant response rating, Rape (rape; [6]): 1
Plant response rating, Rape (rape; [7]): 3
Plant response rating, Soybean (soybean; [1]): 5
Soybean plant response rating (soybean; [2]): 0
Soybean plant response rating (0 to 10 scale) (soybean; Preemergence, Rate 125 g/ha): 0
Soybean plant response rating (soybean; [3]): 0
Soybean plant response rating (soybean; [4]): 0
Soybean plant response rating (soybean; [5]): 3
Plant response rating, Soybean (soybean; [6]): 5
Plant response rating, Soybean (soybean; [7]): 6
Plant response rating, Sugarbeets (sugar beet; [1]): 0
Sugarbeets plant response rating (sugar beet; [2]): 0
Sugarbeets plant response rating (0 to 10 scale) (sugar beet; Preemergence, Rate 125 g/ha): 0
Sugarbeets plant response rating (sugar beet; [3]): 0
Sugarbeets plant response rating (sugar beet; [4]): 2
Sugarbeets plant response rating (sugar beet; [5]): 0
Plant response rating, Sugarbeets (sugar beet; [6]): 0
Plant response rating, Sugarbeets (sugar beet; [7]): 0
Plant response rating, Velvetleaf (velvetleaf; [1]): 0
Velvetleaf plant response rating (velvetleaf; [2]): 0
Velvetleaf plant response rating (0 to 10 scale) (velvetleaf; Preemergence, Rate 125 g/ha): 0
Velvetleaf plant response rating (velvetleaf; [3]): 0
Velvetleaf plant response rating (velvetleaf; [4]): 0
Velvetleaf plant response rating (velvetleaf; [5]): 0
Plant response rating, Velvetleaf (velvetleaf; [6]): 2
Plant response rating, Velvetleaf (velvetleaf; [7]): 2
Plant response rating, Wheat (wheat; [1]): 0
Wheat plant response rating (wheat; [2]): 0
Wheat plant response rating (0 to 10 scale) (wheat; Preemergence, Rate 125 g/ha): 0
Wheat plant response rating (wheat; [3]): 0
Wheat plant response rating (wheat; [4]): 2
Wheat plant response rating (wheat; [5]): 0
Plant response rating, Wheat (wheat; [6]): 0
Plant response rating, Wheat (wheat; [7]): 0
Plant response rating, Wild oats (wild oat; [1]): 0
Wild oats plant response rating (wild oat; [2]): 0
Wild oats plant response rating (0 to 10 scale) (wild oat; Preemergence, Rate 125 g/ha): 1
Wild oats plant response rating (wild oat; [3]): 3
Wild oats plant response rating (wild oat; [4]): 3
Wild oats plant response rating (wild oat; [5]): 0
Plant response rating, Wild oats (wild oat; [6]): 0
Plant response rating, Wild oats (wild oat; [7]): 0
Plant response rating, Nutsedge (purple nutsedge; [1]): 0
Nutsedge plant response rating (purple nutsedge; [2]): 0
Nutsedge plant response rating (purple nutsedge; [3]): 0
Nutsedge plant response rating (purple nutsedge; [4]): 0
Nutsedge plant response rating (purple nutsedge; [5]): 0
Plant response rating, Nutsedge (purple nutsedge; [6]): 0
Plant response rating, Nutsedge (purple nutsedge; [7]): 0
Rice plant response rating (rice; [8]): 0
Rice plant response rating (rice; [9]): 0
Rice plant response rating (rice; [10]): 0
Rice plant response rating (rice; [11]): 0
S. Flatsedge plant response rating (smallflower flatsedge; [8]): 0
S. Flatsedge plant response rating (smallflower flatsedge; [9]): 0
S. Flatsedge plant response rating (smallflower flatsedge; [10]): 0
S. Flatsedge plant response rating (smallflower flatsedge; [11]): 0
Ducksalad plant response rating (duck salad; [8]): 0
Ducksalad plant response rating (duck salad; [9]): 0
Ducksalad plant response rating (duck salad; [10]): 0
Ducksalad plant response rating (duck salad; [11]): 0
Barnyardgrass plant response rating (bamyardgrass; [8]): 0
Barnyardgrass plant response rating (bamyardgrass; [9]): 0
Barnyardgrass plant response rating (bamyardgrass; [10]): 8
Barnyardgrass plant response rating (bamyardgrass; [11]): 9
